Reference: patent publication US20060293378A1, “Method of lowering intraocular pressure” (priority 2005, published 2006)

Tested on: intraocular pressure
Assay: Intraocular pressure in rabbits after injection of an aqueous suspension into the right eye, compared with untreated left eyes
Format: in vivo
Conditions: suspension of 2 mg/mL compound with 7.5 mg/mL sodium carboxymethylcellulose injected into right eyes, dosages 60 μg, 100 μg and 140 μg, versus untreated left eyes, maintained over the 14 days of the test, FIGS. 1 to 3
Protocol: An aqueous suspension was produced containing 2 mg/mL of compound 21 illustrated above together with 7.5 mg/mL of sodium carboxymethylcellulose.

CC(C)OCc1ccc2c(c1)c1c3c(c4c(c1n2CCCOC(=O)CN(C)C)Cc1ccccc1-4)C(=O)NC3 [Compound 21]
effect on intraocular pressure over time: significantly increased lowering of intraocular pressure
